The results in this text go back to US10273226B2, “Pyrazolyl-heteroarylamides as pesticides” (Bayer Animal Health GmbH, priority 2014, dated 2019).

Assay type in all cases: in vivo
One assay deals with Lucilia cuprina. Put plainly: Lucilia cuprina test. As to conditions: application rate 100 ppm; L1 larvae; after 2 days. An outline of the steps: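 About 20 L1 larvae placed in vessels with minced horsemeat treated with compound (DMSO concentrate diluted in water) at the desired concentration. Kill (%) scored after 2 days; 100% means all larvae dead, 0% none.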
The subject of the next assay is Myzus persicae. Put plainly: Myzus persicae spray test. As to conditions: application rate 100 g/ha; after 6 days. On the procedure: Myzus persicae—Spray Test
To produce an appropriate active ingredient formulation, 1 part by weight of active ingredient is dissolved using the specified parts by weight of solvent and made up with water containing an emulsifier concentration of 1000 ppm until the desired concentration is attained. To produce further test concentrations, the preparation is diluted with emulsifier-containing water.
Discs of Chinese cabbage leaves (Brassica pekinensis) infested by all stages of the green peach aphid (Myzus persicae) are sprayed with an active ingredient formulation of the desired concentration.
After 6 days, efficacy in % is determined. 100% means that all the aphids have been killed; 0% means that none of the aphids have been killed.

In the next assay the test system is Boophilus microplus. The assay is described as follows: Boophilus microplus injection test. Particulars: application rate 20 μg/animal; injection into abdomen; assessed after 7 days. In a few lines: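 DMSO formulation, 1 μl intra-abdominal injection, n=5 engorged adult females; climate-controlled room; score fertile eggs d7, unclear eggs held until larval hatch (~42 d); % efficacy, 100% = no fertile eggs.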

The subject of assay [1] is Boophilus microplus Parkhurst strain, SP-resistant. The assay is described as follows: Boophilus microplus dip test. As to conditions: application rate 100 ppm, assessed after 7 days. On the procedure: Boophilus microplus—Dip Test
Test animals: cattle ticks (Boophilus microplus) Parkhurst strain, SP-resistant
(§1) Solvent: dimethyl sulphoxide
10 mg of active ingredient are dissolved in 0.5 ml of dimethyl sulphoxide. For the purpose of producing a suitable formulation, the active ingredient solution is diluted with water to the concentration desired in each case.
This active ingredient formulation is pipetted into tubes. 8-10 adult engorged female cattle ticks (Boophilus microplus) are transferred into a further tube with holes. The tube is immersed into the active ingredient formulation, and all the ticks are completely wetted. After the liquid has run out, the ticks are transferred on filter discs into plastic dishes and stored in a climate-controlled room.
Efficacy is assessed after 7 days by laying of fertile eggs. Eggs which are not visibly fertile are stored in a climate-controlled cabinet until the larvae hatch after about 42 days. An efficacy of 100% means that none of the ticks has laid any fertile eggs; 0% means that all the eggs are fertile.

The test system of the next assay is Spodoptera frugiperda. Put plainly: Spodoptera frugiperda spray test. Particulars: application rate 100 g/ha; caterpillars; after 7 days. In a few lines: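 Maize leaf discs were sprayed with compound formulated in solvent plus water containing 1000 ppm emulsifier, dried, then infested with Spodoptera frugiperda caterpillars. Efficacy in % mortality was scored after 7 days (100% all killed, 0% none).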

For assay [2], the system named is Ctenocephalides felis. The assay is described as follows: Ctenocephalides felis in vitro contact test with adult cat fleas. As to conditions: application rate 5 μg/cm^2 (500 g/ha); after 48 h; fleas dead or moribund. In a few lines: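 Test tubes were coated with 250 μl acetone solution of compound, giving 5 μg/cm^2 at 900 ppm, then dried and stocked with 5-10 adult cat fleas. After 48 h at room temperature and ambient humidity, dead or moribund fleas were counted; efficacy given as % (100% = all dead or moribund).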

The next assay deals with Rhipicephalus sanguineus. The assay is described as follows: Rhipicephalus sanguineus in vitro contact test with adult brown dog ticks. Particulars: application rate 5 μg/cm^2 (500 g/ha); after 48 h; ticks dead or moribund. An outline of the steps:
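Test tubes (25 ml) were coated by dissolving active ingredient in acetone p.a., diluting to the required concentration, and spreading 250 μl over the inner walls and base on an orbital shaker at 30 rpm for 2 h. Once dry, 5-10 adult Rhipicephalus sanguineus were added, and tubes were capped with perforated lids and kept horizontal in darkness at room temperature. At 48 h, ticks were knocked down and heated at 45-50° C. for up to 5 min. Those unable to climb away were counted dead or moribund, and efficacy ran from 0% to 100%.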

The subject of another assay is Phaedon cochleariae. The assay is described as follows: Phaedon cochleariae spray test. As to conditions: application rate 100 g/ha; larvae; after 7 days. An outline of the steps: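 Chinese cabbage leaf discs were sprayed with the compound formulated in water containing 1000 ppm emulsifier. After drying, they were infested with mustard beetle larvae. Efficacy was scored as % larvae killed after 7 days (100% = all dead, 0% = none).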

The test system of assay [3] is Ctenocephalides felis. Put plainly: Ctenocephalides felis oral test. As to conditions: application rate 100 ppm in citrated cattle blood; after 2 days. In a few lines: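 Mortality in % was recorded 2 days after about 20 unfed adult cat fleas were allowed to imbibe citrated cattle blood containing the active ingredient through a parafilm membrane. The compound was first taken up in DMSO and then diluted with the blood to the desired concentration.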

A further assay has as its system Tetranychus urticae. Put plainly: Tetranychus urticae spray test, OP-resistant. As to conditions: application rate 100 g/ha; after 6 days. In a few lines:
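Bean leaf discs (Phaseolus vulgaris) carrying all stages of OP-resistant mites are sprayed with compound formulated in solvent and emulsifier-containing water. Efficacy (% mites killed) is scored after 6 days.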

The next assay has as its system Musca domestica. The assay is described as follows: Musca domestica test. Particulars: application rate 100 ppm; adult houseflies; after 2 days. An outline of the steps: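 Percent kill of adult houseflies is recorded 2 days after exposure, where 100% denotes all flies dead and 0% none. Flies (10 per vessel) feed from a sponge carrying sugar solution and the aqueous-diluted DMSO formulation.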

The subject of another assay is Amblyomma hebraeum. Put plainly: Amblyomma hebraeum test (tick nymphs, immersion). Particulars: application rate 100 ppm; tick nymphs immersed one minute; after 42 days. On the procedure:
as §1
To produce an appropriate active ingredient formulation, 10 mg of active ingredient are mixed with 0.5 ml of dimethyl sulphoxide, and the concentrate is diluted with water to the desired concentration.
Tick nymphs (Amblyomma hebraeum) are placed into perforated plastic cups and immersed in the desired concentration for one minute. The ticks are transferred on filter paper into a Petri dish and stored in a climate-controlled cabinet.
After 42 days, the kill in % is determined. 100% means that all of the ticks have been killed; 0% means that none of the ticks have been killed.

On to `Cn1nc(C(F)(F)C(F)(F)F)c(C(F)(F)F)c1-n1cc(-c2cccc(NC(=O)c3ccccc3)c2)cn1` [Example 1-010], for which the “efficacy (kill in %)” value in the assay with Lucilia cuprina, in the assay with Ctenocephalides felis [3] and in the assay with Musca domestica was 100% throughout. The efficacy with Myzus persicae, in the assay with Spodoptera frugiperda, in the assay on Ctenocephalides felis [2], with Rhipicephalus sanguineus, with Phaedon cochleariae and in the assay with Tetranychus urticae was 100% throughout. For the same compound, the “efficacy (laying of fertile eggs)” value is on record as 100% in the assay with Boophilus microplus and 90% in assay [1].
Regarding `Cn1nc(C(F)(F)C(F)(F)F)c(C(F)(F)F)c1-n1cc(-c2ccc(Cl)c(NC(=O)c3ccc(F)cc3)c2)cn1` [Example 1-022], the “efficacy (kill in %)” value in the assay on Lucilia cuprina, in the assay on Amblyomma hebraeum and in the assay on Ctenocephalides felis [3] was 100% throughout. Also, the “efficacy (laying of fertile eggs)” value (in the assay on Boophilus microplus; in assay [1]) was 100% in each case. Also, the efficacy with Spodoptera frugiperda, with Ctenocephalides felis [2], with Rhipicephalus sanguineus, in the assay with Phaedon cochleariae and in the assay with Tetranychus urticae was 100% in each case.
As to `Cn1nc(C(F)(F)C(F)(F)F)c(C(F)(F)F)c1-n1cc(-c2ccc(F)c(NC(=O)c3ccccc3)c2)cn1` [Example 1-026], the “efficacy (kill in %)” value in the assay with Lucilia cuprina was 100%; with Ctenocephalides felis [3], 100%; in the assay on Musca domestica it was 90%. In addition, the efficacy in the assay with Myzus persicae, with Spodoptera frugiperda, with Ctenocephalides felis [2], in the assay with Rhipicephalus sanguineus, in the assay on Phaedon cochleariae and in the assay on Tetranychus urticae was 100% in each case. Further, the “efficacy (laying of fertile eggs)” value (in the assay on Boophilus microplus; in [1]) was 100% throughout.
For the compound `Cn1nc(C(F)(F)C(F)(F)F)c(C(F)(F)F)c1-n1cc(-c2ccc(F)c(NC(=O)c3ccc(F)cc3)c2)cn1` [Example 1-027], the “efficacy (kill in %)” value in the assay on Lucilia cuprina, with Ctenocephalides felis [3] and in the assay with Musca domestica was 100% throughout. Moreover, the efficacy in the assay on Myzus persicae, in the assay with Spodoptera frugiperda, in the assay on Ctenocephalides felis [2], in the assay with Rhipicephalus sanguineus, in the assay with Phaedon cochleariae and with Tetranychus urticae was 100% in each case. Also, the “efficacy (laying of fertile eggs)” value (in the assay with Boophilus microplus; in [1]) was 100% each time.
For the compound `Cc1ccc(-c2cnn(-c3c(C(F)(F)F)c(C(F)(F)C(F)(F)F)nn3C)c2)cc1NC(=O)c1ccc(F)cc1` [Example 1-038], the “efficacy (kill in %)” value with Lucilia cuprina, in the assay on Amblyomma hebraeum and with Ctenocephalides felis [3] was 100% throughout. For the same compound, the “efficacy (laying of fertile eggs)” value (with Boophilus microplus; in assay [1]) was 100% each time. Besides, the efficacy with Spodoptera frugiperda, in the assay on Rhipicephalus sanguineus, with Phaedon cochleariae and in the assay with Tetranychus urticae was 100% each time.
For the compound `Cn1nc(C(F)(F)C(F)(F)F)c(C(F)(F)F)c1-n1cc(-c2ccc(F)c(NC(=O)c3ccc(C#N)cc3)c2)cn1` [Example 1-088], the “efficacy (kill in %)” value with Lucilia cuprina, with Amblyomma hebraeum and in the assay with Ctenocephalides felis [3] was 100% in each case. Besides, the “efficacy (laying of fertile eggs)” value (in the assay with Boophilus microplus; in assay [1]) was 100% in each case. Besides, the efficacy in the assay with Spodoptera frugiperda, with Ctenocephalides felis [2], with Rhipicephalus sanguineus, in the assay on Phaedon cochleariae and with Tetranychus urticae was 100% in each case.
As for `Cn1nc(C(F)(F)C(F)(F)F)c(C(F)(F)F)c1-n1cc(-c2ccc(F)c(NC(=O)c3ccnc(F)c3)c2)cn1` [Example 1-089], the “efficacy (kill in %)” value in the assay with Lucilia cuprina, in the assay with Ctenocephalides felis [3] and in the assay on Musca domestica was 100% in each case. Besides, the efficacy with Myzus persicae is listed as 90%; in the assay with Spodoptera frugiperda it was 100%; in the assay with Ctenocephalides felis [2], 100%; in the assay on Rhipicephalus sanguineus, 100%; in the assay on Phaedon cochleariae it was 100%; with Tetranychus urticae it was 100%. Besides, the “efficacy (laying of fertile eggs)” value (with Boophilus microplus; in assay [1]) was 100% each time.
`Cn1nc(C(F)(F)C(F)(F)F)c(C(F)(F)F)c1-n1cc(-c2ccc(F)c(NC(=O)c3ccc(C#N)nc3)c2)cn1` [Example 1-098]: the “efficacy (kill in %)” value in the assay on Lucilia cuprina and in the assay on Ctenocephalides felis [3] was 100% in each case. Also, the efficacy with Myzus persicae came out at 100%; in the assay with Spodoptera frugiperda, 100%; with Ctenocephalides felis [2], 100%; in the assay on Rhipicephalus sanguineus it was 80%; in the assay on Phaedon cochleariae, 100%; in the assay on Tetranychus urticae, 100%. The “efficacy (laying of fertile eggs)” value (in the assay on Boophilus microplus; in assay [1]) was 100% throughout.
As for `Cn1nc(C(F)(F)C(F)(F)F)c(C(F)(F)F)c1-n1cc(-c2ccc(F)c(NC(=O)c3ccc(Cl)nc3)c2)cn1` [Example 1-099], the “efficacy (kill in %)” value with Lucilia cuprina, with Ctenocephalides felis [3] and in the assay with Musca domestica was 100% in each case. Further, the efficacy in the assay with Myzus persicae, in the assay with Spodoptera frugiperda, with Ctenocephalides felis [2], with Rhipicephalus sanguineus, in the assay on Phaedon cochleariae and in the assay on Tetranychus urticae was 100% in each case. Besides, the “efficacy (laying of fertile eggs)” value (in the assay on Boophilus microplus; in [1]) was 100% in each case.
Consider `Cn1nc(C(F)(F)C(F)(F)F)c(C(F)(F)F)c1-n1cc(-c2ccc(F)c(NC(=O)c3ccc(F)nc3)c2)cn1` [Example 1-100], for which the “efficacy (kill in %)” value with Lucilia cuprina, in the assay with Ctenocephalides felis [3] and in the assay with Musca domestica was 100% throughout. Moreover, the efficacy in the assay with Myzus persicae, with Spodoptera frugiperda, with Ctenocephalides felis [2], with Rhipicephalus sanguineus, with Phaedon cochleariae and with Tetranychus urticae was 100% throughout. In addition, the “efficacy (laying of fertile eggs)” value (in the assay on Boophilus microplus; in assay [1]) was 100% each time.
